Measurements from US10829520B2, “Beta-hairpin peptidomimetics” (POLYPHOR AG, priority 2015, dated 2020).
Where a SMILES comes first, the peptide text is derived from it. Bridges are numbered along the chain shown (N, C = ends). Roman numbers before positions name the chains, in order. [ ]: non-standard residue; d: D form. Tle = CC(C)(C)[C@H](N)C(=O)O; dDab = NCC[C@@H](N)C(=O)O; Nle = CCCC[C@H](N)C(=O)O; Orn = NCCC[C@H](N)C(=O)O; Dab = NCC[C@H](N)C(=O)O; dAze = O=C(O)[C@H]1CCN1; Dap = NC[C@H](N)C(=O)O; Aib = CC(C)(N)C(=O)O

What was measured:
Format in all cases: cell-based
[1] = system: Pseudomonas aeruginosa ATCC 27853; settings: ATCC 27853
Method in brief: (§1)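 Using the CLSI reference method, each strain at approx. 10^6 CFU/mL was exposed to serially diluted peptide in MH-II broth with 0.002% P-80. After 18-20 h at 35° C, the lowest concentration showing no visible growth gave the MIC.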

[2] = system: Klebsiella pneumoniae 968733; settings: 968733
Escherichia coli 926415 = settings: 926415
[3] = system: Escherichia coli ATCC 25922; settings: ATCC 25922
Method in brief: as §1

[4] = system: Acinetobacter baumannii 872842; settings: 872842
[5] = system: Acinetobacter baumannii DSM 30008; settings: DSM 30008
Method in brief: as §1

[6] = system: Klebsiella pneumoniae SSI #3010; settings: SSI #3010
Method in brief: as §1

[7] = system: human red blood cells (hRBC); test: Hemolysis of human red blood cells; settings: red cells of human, 1 h
Method in brief: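 Washed fresh human erythrocytes (20% v/v, ~0.9×10^9 cells/mL final) were incubated with peptides at 100 μg/mL for 1 h at 37 °C with shaking. Supernatant OD540 measured; hemolysis expressed as % of 2.5% Triton X-100 lysis, with PBS/0.001% acetic acid as 0%.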

Compound | Pseudomonas aeruginosa ATCC 27853 MIC [1] [µg/mL] | Klebsiella pneumoniae 968733 MIC [2] [µg/mL] | Escherichia coli 926415 MIC (Escherichia coli 926415) [µg/mL] | Escherichia coli ATCC 25922 MIC [3] [µg/mL] | Acinetobacter baumannii 872842 MIC [4] [µg/mL] | Acinetobacter baumannii DSM 30008 MIC [5] [µg/mL] | Klebsiella pneumoniae SSI #3010 MIC [6] [µg/mL] | Hemolysis at 100 μg/mL ([7]; 100 μg/mL) [%] | Hemolysis at 100 μg/mL [7]; 100 [%]
CCCC[C@@H]1NC(=O)[C@@H]2CCCN2C(=O)[C@H]2CCCN2C(=O)[C@H](CO)NC(=O)[C@H](C)NC(=O)[C@H](C(C)(C)C)NC(=O)[C@@H](NC(=O)[C@H](Cc2c[nH]c3ccccc23)NC(=O)C(C)(C)N)CSSC[C@@H](C(=O)N[C@@H](CCN)C(=O)N[C@H](C(=O)N[C@@H](CCN)C(=O)N[C@H]2CCNC(=O)[C@H]([C@@H](C)O)NC(=O)[C@H](CCN)NC(=O)[C@H](CCN)NC(=O)[C@H](CC(C)C)NC(=O)[C@@H](Cc3ccccc3)NC(=O)[C@H](CCN)NC2=O)[C@@H](C)O)NC(=O)[C@H](Cc2ccc(O)cc2)NC(=O)[C@H](CO)NC1=O [Ex. 44] (H-[Aib]WC[Tle]AS[dP]P[Nle]SYC[Dab]T[Dab][Dab][Dab][dF]L[Dab][Dab]T; disulfide 3-12; lactam 16-C) | 0.25 | 2 | 0.25 | 0.125 | 0.5 | 0.125 | 0.25 | <1 | 
CCCC[C@@H]1NC(=O)[C@@H]2CCCN2C(=O)[C@H]2CCCN2C(=O)[C@H](CO)NC(=O)[C@H](C)NC(=O)[C@H](C(C)(C)C)NC(=O)[C@H](CCN)NC(=O)[C@H](Cc2c[nH]c3ccccc23)NC(=O)[C@H](CCN)NC(=O)[C@H](CCC(=O)N[C@@H](CCN)C(=O)N[C@H](CCN)C(=O)N[C@H]2CCNC(=O)[C@H]([C@@H](C)O)NC(=O)[C@H](CCN)NC(=O)[C@H](CCN)NC(=O)[C@H](CC(C)C)NC(=O)[C@@H](CC(C)C)NC(=O)[C@H](CCN)NC2=O)NC(=O)[C@H](CCCN)NC(=O)[C@H](CCN)NC(=O)[C@H](Cc2ccc(O)cc2)NC(=O)[C@H](CO)NC1=O [Ex. 78] (I: cyclo([Nle]SY[Dab][Orn]E[Dab]W[Dab][Tle]AS[dP]P) / II: [Dab][dDab][Dab][Dab][dL]L[Dab][Dab]T; amide I:6-II:N; lactam II:3-II:C) | 0.25 | 0.5 | 0.5 | 0.5 | 1 | 0.5 | 0.5 |  | 1
CCCC[C@@H]1NC(=O)[C@@H]2CCCN2C(=O)[C@H]2CCCN2C(=O)[C@H](CO)NC(=O)[C@H](C)NC(=O)[C@H](C(C)(C)C)NC(=O)[C@@H](NC(=O)[C@@H](N)Cc2c[nH]c3ccccc23)CSSC[C@@H](C(=O)N[C@@H](CCN)C(=O)N[C@H](C(=O)N[C@@H](CN)C(=O)N[C@H]2CCNC(=O)[C@H]([C@@H](C)O)NC(=O)[C@H](CCN)NC(=O)[C@H](CCN)NC(=O)[C@H](CC(C)C)NC(=O)[C@@H](Cc3ccccc3)NC(=O)[C@H](CCN)NC2=O)[C@@H](C)O)NC(=O)[C@H](Cc2ccc(O)cc2)NC(=O)[C@H](CO)NC1=O [Ex. 16] (H-WC[Tle]AS[dP]P[Nle]SYC[Dab]T[Dap][Dab][Dab][dF]L[Dab][Dab]T; disulfide 2-11; lactam 15-C) | 0.25 | 0.375 | 0.125 | 0.5 | 0.25 | 0.25 | 0.25 | 3 | 
CCCC[C@@H]1NC(=O)[C@@H]2CCCN2C(=O)[C@H]2CCCN2C(=O)[C@H](CO)NC(=O)[C@H](C)NC(=O)[C@H](C(C)(C)C)NC(=O)[C@@H](NC(=O)[C@H](Cc2c[nH]c3ccccc23)NC(C)=O)CCC(=O)NCC[C@@H](C(=O)N[C@@H](CCN)C(=O)N[C@H](C(=O)N[C@@H](CCN)C(=O)N[C@H]2CCNC(=O)[C@H]([C@@H](C)O)NC(=O)[C@H](CCN)NC(=O)[C@H](CCN)NC(=O)[C@H](CC(C)C)NC(=O)[C@@H](Cc3ccccc3)NC(=O)[C@H](CCN)NC2=O)[C@@H](C)O)NC(=O)[C@H](Cc2ccc(O)cc2)NC(=O)[C@H](CO)NC1=O [Ex. 14] (Ac-WE[Tle]AS[dP]P[Nle]SY[Dab][Dab]T[Dab][Dab][Dab][dF]L[Dab][Dab]T; lactam 2-11, 15-C) | 1 | 8 | 4 | 0.5 | 1 | 0.5 | 1 |  | <1
CC(=O)N[C@@H](Cc1c[nH]c2ccccc12)C(=O)N[C@H]1CSSC[C@@H](C(=O)N[C@@H](CCCN)C(=O)N[C@H](CCN)C(=O)N[C@@H](CCN)C(=O)N[C@@H](CCN)C(=O)N[C@H]2CCNC(=O)[C@H]([C@@H](C)O)NC(=O)[C@H](CCN)NC(=O)[C@H](CCN)NC(=O)[C@H](CC(C)C)NC(=O)[C@@H](Cc3ccccc3)NC(=O)[C@H](CCN)NC2=O)NC(=O)[C@H](Cc2ccc(O)cc2)NC(=O)[C@H](CN)NC(=O)[C@H](Cc2ccccc2)NC(=O)[C@H](Cc2ccccc2)NC(=O)[C@H]2CCCN2C(=O)[C@H](CO)NC(=O)[C@H](C)NC(=O)[C@H](C(C)(C)C)NC1=O [Ex. 137] (Ac-WC[Tle]AS[dP]FF[Dap]YC[Orn][dDab][Dab][Dab][Dab][Dab][dF]L[Dab][Dab]T; disulfide 2-11; lactam 16-C) | 1 | 0.5 | 0.5 | 0.25 | 0.5 | 0.5 | 0.5 | 4 | 
CC(C)C[C@@H]1NC(=O)[C@@H](Cc2ccccc2)NC(=O)[C@H](CCN)NC(=O)[C@@H](NC(=O)[C@H](CCN)NC(=O)[C@@H](NC(=O)[C@H](CCN)NC(=O)CC[C@@H]2NC(=O)[C@H](CCN)NC(=O)[C@H](Cc3ccc(O)cc3)NC(=O)[C@@H]3CCNC(=O)C[C@H](NC(=O)[C@H](C(C)(C)C)NC(=O)[C@H](CCN)NC(=O)[C@H](Cc4c[nH]c5ccccc45)NC(=O)[C@H](CCN)NC(=O)[C@@H](CCN)NC2=O)C(=O)N[C@@H]([C@@H](C)O)C(=O)N2CC[C@@H]2C(=O)N2CCC[C@H]2C(=O)N[C@@H](C(C)C)C(=O)N3)[C@@H](C)O)CCNC(=O)[C@H]([C@@H](C)O)NC(=O)[C@H](CCN)NC(=O)[C@H](CCN)NC1=O [Ex. 86] (I: cyclo(DT[dAze]PV[Dab]Y[Dab]E[dDab][Dab]W[Dab][Tle]) / II: [Dab]T[Dab][Dab][Dab][dF]L[Dab][Dab]T; lactam I:1-I:6, II:4-II:C; amide I:9-II:N) | 0.5 | 0.5 | 0.25 | 0.25 | 0.5 | 1 | 0.25 |  | 1
CCCC[C@@H]1NC(=O)[C@@H]2CCCN2C(=O)[C@H]2CCCN2C(=O)[C@H](CO)NC(=O)[C@H](C)NC(=O)[C@H](C(C)(C)C)NC(=O)[C@@H](NC(=O)[C@H](Cc2c[nH]c3ccccc23)NC(C)=O)CSSC[C@@H](C(=O)N[C@@H](CCN)C(=O)NCC(=O)N[C@@H](CCN)C(=O)N[C@H]2CCNC(=O)[C@H]([C@@H](C)O)NC(=O)[C@H](CCN)NC(=O)[C@H](CCN)NC(=O)[C@H](CC(C)C)NC(=O)[C@@H](Cc3ccccc3)NC(=O)[C@H](CCN)NC2=O)NC(=O)[C@H](Cc2ccc(O)cc2)NC(=O)[C@H](CO)NC1=O [Ex. 22] (Ac-WC[Tle]AS[dP]P[Nle]SYC[Dab]G[Dab][Dab][Dab][dF]L[Dab][Dab]T; disulfide 2-11; lactam 15-C) | 0.25 | 1 | 0.5 | 0.125 | 0.125 | 0.5 | 0.25 | <1 | 
CCCC[C@@H]1NC(=O)[C@@H]2CCCN2C(=O)[C@H]2CCCN2C(=O)[C@H]([C@@H](C)O)NC(=O)[C@H](CN)NC(=O)[C@H](C(C)(C)C)NC(=O)[C@@H](NC(=O)[C@H](Cc2c[nH]c3ccccc23)NC(C)=O)CSSC[C@@H](C(=O)N[C@@H](CCN)C(=O)N[C@H](C(=O)N[C@@H](CCN)C(=O)N[C@H]2CCNC(=O)[C@H]([C@@H](C)O)NC(=O)[C@H](CCN)NC(=O)[C@H](CCN)NC(=O)[C@H](CC(C)C)NC(=O)[C@@H](Cc3ccccc3)NC(=O)[C@H](CCN)NC2=O)[C@@H](C)O)NC(=O)[C@H](Cc2ccc(O)cc2)NC(=O)CNC1=O [Ex. 116] (Ac-WC[Tle][Dap]T[dP]P[Nle]GYC[Dab]T[Dab][Dab][Dab][dF]L[Dab][Dab]T; disulfide 2-11; lactam 15-C) | 1 | 0.5 | 0.0625 |  | 0.125 | 0.25 | 0.25 | <1 | 
